The subject of data set [1] is Philadelphia positive acute lymphoblastic leukemia (Ph+ ALL) cells. Nature of the data set: Colony growth of Philadelphia positive ALL cells in methylcellulose culture. It counts as cell-based, human. As to the method:
Ph+ ALL cells were plated in 1 ml volumes, in the absence of exogenous growth factors, into 35 mm petri dishes (Nunc, Gibco) containing alpha MEM (Gibco) plus 10% FCS (Cansera Rexdale, ON.) in 0.9% (vol/vol) methylcellulose (Fluka, Switzerland) with the indicated concentrations of CR4. Cultures were set at 37° C., 5% CO2 in a humidified atmosphere. Colonies consisting of more than 20 cells were counted at 12 days or earlier using an inverted microscope.
ALL cells were plated in 1 ml volumes, in the absence of exogenous growth factors, into 35 mm petri dishes (Nunc, Gibco) containing alpha MEM (Gibco) plus 20% FCS (Cansera Rexdale, ON.) in 0.9% (vol/vol) methylcellulose (Fluka, Switzerland) and the indicated concentrations of compound Cultures were set at 37° C., 5% CO2 in a humidified atmosphere Colonies consisting of more than 20 cells were counted at 12 days or earlier using an inverted microscope.
ALL cells were plated in 1 ml volumes, in the absence of exogenous growth factors, into 35 mm petri dishes (Nunc, Gibco) containing alpha MEM (Gibco) plus 20% FCS (Cansera Rexdale, ON) in 0.90% (vol/vol) methylcellulose (Fluka, Switzerland) and the indicated concentrations of compound. Cultures were set at 37° C., 5% CO2 in a humidified atmosphere. Colonies consisting of more than 20 cells were counted at 12 days or earlier using an inverted microscope.
ALL cells were plated in 1 ml volumes, in the absence of exogenous growth factors, into 35 mm petri dishes (Nunc, Gibco) containing alpha MEM (Gibco) plus 20% FCS (Cansera Rexdale, ON.) in 0.9% (vol/vol) methylcellulose (Fluka, Switzerland) and the indicated concentrations of CR24. Cultures were set at 37° C., 5% CO2 in a humidified atmosphere. Colonies consisting of more than 20 cells were counted at 9 days or earlier using an inverted microscope.
ALL cells were plated in 1 ml volumes, in the absence of exogenous growth factors, into 35 mm petri dishes (Nunc, Gibco) containing alpha MEM (Gibco) plus 20% FCS (Cansera Rexdale, ON.) in 0.9% (vol/vol) methylcellulose (Fluka, Switzerland) and the indicated concentrations of CR19. Cultures were set at 37° C., 5% CO2 in a humidified atmosphere. Colonies consisting of more than 20 cells were counted at 9 days or earlier using an inverted microscope.

Data set [2] relates to normal bone marrow cells. Nature of the data set: CFU-GEMM assay: normal bone marrow differentiation in culture. It is filed as cell-based. Conditions: for inhibition of BFU-E colony formation: 20 μM. As to the method:
(§1) The CFU-GEMM assay was performed according to Fauser and Messner (1978, Blood, 52(6) 143-8) and Messner and Fausser (1980, Blut, 41(5) 327-33) with some variations. In brief, heparinized bone marrow cells were layered over Percoll (1.077 gm/ml) (Pharmacia Fine Chemical, Piscataway N.J.) and centrifuged at 400 g at 4° C. for 10 minutes to remove neutrophils and RBCs. The fractionated BM cells at 2×10^5 cells/ml were cultured in IMDM (OCl, Toronto) containing 0.9% (vol/vol) methylcellulose supplemented with 30% FCS (Cansera Rexdale, ON.) or normal human plasma, a cocktail of cytokines containing G-CSF (10 ng/ml, Amgen), IL-3 (40 U/ml, Immunex), MGF (50 ng/ml, Immunex), Erythropoietin (2 u/ml, Epprex) or TPO (10 ng/ml, Amgen), 5×10^−5M β-2-mercaptoethanol and the specified concentration of CR4. The culture mixture was plated in 1 ml volumes into 35 mm petri dishes and incubated at 37° C., 5% CO2 in a humidified atmosphere. All cultures were evaluated at 14 days for the number of BFU-E colonies (defined as aggregates of more than 500 hemoglobinized cells or, 3 or more erythroid subcolonies), OFU-GM colonies (defined as granulocyte or monocyte-macrophage cells or both), CFU-Meg colonies (comprising 4 or more megakaryocytes) and CFU-GEMM colonies (a mixed population comprising of all elements).
as §1, with “1243-8)” for “143-8)”, “concentrations” for “concentration”, “CR19.” for “CR4.”, “hemaglobinized” for “hemoglobinized”, “subcolonies) and CFU-C” for “subcolonies), OFU-GM”, “both).” for “both), CFU-Meg colonies (comprising 4 or more megakaryocytes) and CFU-GEMM colonies (a mixed population comprising of all elements).”
as §1, with “1243-8)” for “143-8)”, “variations (British Journal of Haematology, 1992, 80, p40-48).” for “variations.”, “test compound.” for “CR4.”, “CO2,” for “CO2”, “subcolonies) and CFU-C” for “subcolonies), OFU-GM”, “both).” for “both), CFU-Meg colonies (comprising 4 or more megakaryocytes) and CFU-GEMM colonies (a mixed population comprising of all elements).”

Data set [3] concerns acute lymphoblastic leukemia, Philadelphia positive ALL, acute myeloid leukemia, myeloma and B-lineage lymphoma. Nature of the data set: Growth of cancer cells in culture, summary over cell types. It counts as cell-based. Conditions: for effectiveness against a variety of cell types (Acute Lymphoblastic Leukemia, Philadelphia positive Leukemia, Acute Myeloid Leukemia): in culture.

Data set [4] deals with Ph+ ALL cells. Nature of the data set: In vitro purging of Philadelphia positive ALL with CR11. It is filed as cell-based, human. Conditions: 50 μM, 7 hours exposure (FIG. 22). The method, then: For the purging assay, the cells were resuspended in complete medium with or without CR11 as indicated and incubated at 37° C., 5% CO2 for 0-7 hours. Cells were then washed thoroughly with medium to remove the CR11, resuspended and plated in 1 ml volumes, in the absence of exogenous growth factors, into 35 mm petri dishes (Nunc, Gibco) containing alpha MEM (Gibco) plus 20% FCS (Cansera Rexdale, ON.) in 0.9% (vol/vol) methylcellulose (Fluka, Switzerland). Cultures were set at 37° C., 5% CO2 in a humidified atmosphere. Colonies consisting of more than 20 cells were counted at 9 days or earlier using an inverted microscope.

The test system of data set [5] is normal bone marrow cells. Nature of the data set: In vitro purging of normal bone marrow, then colony assay. It is filed as cell-based. As to the method:
Heparinized bone marrow cells were layered over Percoll (1.077 gm/ml) (Pharmacia Fine Chemical, Piscataway N.J.) and centrifuged at 400 g at 4° C. for 10 minutes to remove neutrophils and RBCs.
For the purging process, the cells were resuspended at 1×10^6/ml in complete medium with or without 50 μM CR4. The cells were incubated with the CR4 for two and a half hours at 37° C., 5% CO2. At the end of this period the cells were thoroughly washed in medium to remove CR4 and then cultured at 2×10^5 cells/ml in IMDM (OCl, Toronto) containing 0.9% (vol/vol) methylcellulose supplemented with 30% FCS (Cansera Rexdale, ON.) or normal human plasma, a cocktail of cytokines containing G-CSF (10 ng/ml, Amgen), IL-3 (40 U/ml, Immunex), MGF (50 ng/ml, Immunex), Etryhropoietin (2 u/ml, Epprex) or TPO (10 ng/ml, Amgen) and 5×10^−5M b-2-mercaptoethanol. The culture mixture was plated in 1 ml volumes into 35 mm petri dishes and incubated at 37° C., 5% CO2 in a humidified atmosphere. All cultures were evaluated at 14 days for the number of BFU-E colonies (defined as aggregates of more than 500 hemaglobinized cells or, 3 or more erythroid subcolonies), CFU-C colonies (defined as granulocyte or monocyte-macrophage cells or both) and CFU-GEMM colonies (a mixed population comprising of all elements).
For the purging process, the cells were resuspended at 1×10^6/ml in complete medium with or without 50 μM CR11. The cells were incubated with the tryrphostin for seven hours at 37° C., 5% CO2. At the end of this period the cells were thoroughly washed in medium to remove CR11 and then cultured at 2×10^5 cells/ml in IMDM (OCl, Toronto) containing 0.9% (vol/vol) methylcellulose supplemented with 30% FCS (Cansera Rexdate, ON.) or normal human plasma, a cocktail of cytokines containing G-CSF (10 ng/ml, Amgen), IL-3 (40 U/ml, Immunex), MGF (50 ng/ml, Immunex), Erythropoietin (2 u/ml, Epprex) or TPO (10 ng/ml, Amgen) and 5×10^−5M β-2-mercaptoethanol. The culture mixture was plated in 1 ml volumes into 35 mm petri dishes and incubated at 37° C., 5% CO2 in a humidified atmosphere. All cultures were evaluated at 14 days for the number of BFU-E colonies (defined as aggregates of more than 500 hemoglobinized cells or, 3 or more erythroid subcolonies), CFU-C colonies (defined as granulocyte or monocyte-macrophage cells or both) and CFU-GEMM colonies (a mixed population comprising of all elements).

Data set [6] has as its system Philadelphia positive ALL, AML and lymphoma. The data set is described as follows: High dose in vitro (ex vivo) purging assays, summary. It counts as cell-based. From the text:
[…] Cancer cell death was effected by the induction of apoptosis. Accordingly, in another aspect of the invention, there is provided a method for killing cancer cells by ex vivo treatment of bone marrow from a patient with cancer with a compound of the invention, preferably CR4 and CR11 and then re-introducing the treated (or purged) bone marrow into the patient.

Setting [7] is: low nanomolar doses, long term exposure.

Regarding `N#C/C(=C\C=C\c1ccc(O)c(O)c1)C(N)=O` [CR17, (E,E)-2-Aminocarbonyl-3-(3,4-dihydroxystyryl)acrylonitrile], the “inhibition of cell growth” value in data set [1] (1-2.5 μM, Example 42, FIG. 8) was “significant inhibition”; in data set [1] (1-2.5 μM, Example 43, FIG. 9), “significant inhibition”. Further, in data set [2] (14 days (FIG. 13)), the “inhibition of BFU-E colony formation” value is “caused inhibition”.
Consider `COc1cc(/C=C/C=C(\C#N)C(=O)NCCO)cc(OC)c1O` [CR24, (E,E)-2-(β-Ethanolaminocarbonyl)-3-(3,5-dimethoxy-4-hydroxystyryl)acrylonitrile], for which, in data set [1] (between 2.5 and 5 μM, colonies at 9 days (FIG. 10)), the “inhibition of cell growth” value is “virtually complete inhibition”. Also, in data set [1] (concentrations as low as 0.5 μM, colonies at 9 days (FIG. 10)), the “effectiveness against Ph+ ALL cells” value is on record as “effective”. Besides, the “inhibition of bone marrow colony formation” value in data set [2] (either 10 or 20 μM, 14 days (FIG. 13)) was “minimal inhibition”.
With `N#C/C(=C\C=C\c1ccccc1)C(=O)NCc1ccc(O)c(O)c1` [CR19, (E,E)-2-(3,4-Dihydroxybenzylaminocarbonyl)-3-styrylacrylonitrile], the “effectiveness against Ph+ ALL cells” value in data set [1] (nanomolar concentrations, colonies at 9 days (FIG. 11)) is given as “highly effective”. Besides, in data set [2] (2.5 μM, 14 days (FIG. 12)), the CFU-C colony formation entry was “boosted” and the “inhibition of the development of BFU-E colonies” value is reported as “significant inhibition”. For the same compound, in data set [2] (5 μM, 14 days (FIG. 12)), the BFU-E colonies entry is listed as “virtually absent” and the “CFU-C colony formation (stimulatory effect)” value was “stimulatory effect disappeared”. Moreover, in data set [2] (setting [7]), the “normal cell growth and differentiation” value is reported as “unaffected”. The “effectiveness against a variety of cell types (Acute Lymphoblastic Leukemia, Philadelphia positive Leukemia, Acute Myeloid Leukemia)” value in data set [3] is “highly effective”. Besides, in data set [3] (setting [7]), the “toxicity to cancer cells” value was “highly toxic”.
On to `N#C/C(=C\C=C\c1ccc(O)c(O)c1)C(=O)NCc1ccc(O)c(O)c1` [CR21, (E,E)-2(3,4-Dihydroxybenzylaminocarbonyl)-3-(3,4-dihydroxystyryl)acrylonitrile], for which the “inhibition of cell growth” value in data set [1] (5 μM, Example 42, FIG. 8) is given as “inhibited cell growth”; in data set [1] (1-2.5 μM, Example 43, FIG. 9), “significant inhibition”. Moreover, the “inhibition of BFU-E colony formation” value in data set [2] (14 days (FIG. 13)) was “caused inhibition”.
As for `COc1cc(/C=C/C=C(\C#N)C(=O)NCc2ccc(O)c(O)c2)cc(OC)c1O` [CR11, (EE)-2-(3,4-Dihydroxybenzylaminocarbonyl)-3-(3,5-dimethoxy-4-hydroxystyryl)acrylonitrile], in data set [3], the “effectiveness against a variety of cell types (Acute Lymphoblastic Leukemia, Philadelphia positive Leukemia, Acute Myeloid Leukemia)” value was “highly effective”. The “killing of Ph+ ALL cells” value in data set [4] is reported as “complete killing”. Moreover, the “BFU-E, CFU-GEMM and CFU-C colonies” value in data set [5] (seven hours exposure to 50 μM (FIG. 21)) is “all normal”. In addition, the “inhibition of colony formation” value in data set [5] (seven hours exposure to 50 μM, colonies at 14 days (FIG. 21)) is reported as “did not result in any significant inhibition”. Besides, the “effectiveness as ex vivo purging agents” value in data set [6] is reported as “effective”.

Source of the values: US6800659B2, “Compounds for modulating cell proliferation” (HSC Research and Development Limited Partnership, priority 2000, dated 2004).
